Laboratory results taken from the supplement of paper PMC8149375.

What was measured:
Conditions in all cases: treatment: drug alone; 5 days
UO-31 [1] = assay: minimum viability across doses, drug alone, relative to DMSO (fraction); higher = less growth inhibition
Method: (§1)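 Primary HTS: 8 RCC cell lines treated with 8 doses (up to 10 uM) of each library drug alone for 5 days; viability read by CellTiter-Glo and normalised to DMSO. GI50 was fitted with XLfit (4-parameter), AUC is the area under the dose-response curve, and minimum viability is the lowest fraction of DMSO viability across doses.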

CAKI-1 [2] = assay: as above
Method: as §1

A498 [3] = assay: as above
Method: as §1

ACHN [4] = assay: as above
Method: as §1

TK-10 [5] = assay: as above
Method: as §1

SN12C [6] = assay: as above
Method: as §1

769-P [7] = assay: as above
Method: as §1

786-O [8] = assay: as above
Method: as §1

UO-31 [9] = assay: AUC of dose-response viability curve, drug alone (arbitrary (AUC of normalised viability)); higher = less growth inhibition
Method: as §1

CAKI-1 [10] = assay: as above
Method: as §1

A498 [11] = assay: as above
Method: as §1

ACHN [12] = assay: as above
Method: as §1

TK-10 [13] = assay: as above
Method: as §1

SN12C [14] = assay: as above
Method: as §1

769-P [15] = assay: as above
Method: as §1

786-O [16] = assay: as above
Method: as §1

UO-31 [17] = assay: GI50, drug alone; higher = less potent
Method: as §1

CAKI-1 [18] = assay: GI50, drug alone; higher = less potent
Method: as §1

A498 [19] = assay: GI50, drug alone; higher = less potent
Method: as §1

ACHN [20] = assay: GI50, drug alone; higher = less potent
Method: as §1

TK-10 [21] = assay: GI50, drug alone; higher = less potent
Method: as §1

SN12C [22] = assay: GI50, drug alone; higher = less potent
Method: as §1

769-P [23] = assay: GI50, drug alone; higher = less potent
Method: as §1

786-O [24] = assay: GI50, drug alone; higher = less potent
Method: as §1

Row | Structure (SMILES) | minimum viability across doses (UO-31 [1]) | minimum viability across doses (CAKI-1 [2]) | minimum viability across doses (A498 [3]) | minimum viability across doses (ACHN [4]) | minimum viability across doses (TK-10 [5]) | minimum viability across doses (SN12C [6]) | minimum viability across doses (769-P [7]) | minimum viability across doses (786-O [8]) | AUC of dose-response viability curve (UO-31 [9]) | AUC of dose-response viability curve (CAKI-1 [10]) | AUC of dose-response viability curve (A498 [11]) | AUC of dose-response viability curve (ACHN [12]) | AUC of dose-response viability curve (TK-10 [13]) | AUC of dose-response viability curve (SN12C [14]) | AUC of dose-response viability curve (769-P [15]) | AUC of dose-response viability curve (786-O [16]) | GI50, drug alone (UO-31 [17]) | GI50, drug alone (CAKI-1 [18]) | GI50, drug alone (A498 [19]) | GI50, drug alone (ACHN [20]) | GI50, drug alone (TK-10 [21]) | GI50, drug alone (SN12C [22]) | GI50, drug alone (769-P [23]) | GI50, drug alone (786-O [24])
1 | CNC(=O)c1ccc(-c2cnc3ncc(Cc4ccc5ncccc5c4)n3n2)cc1F | 1.21 | 0.802 | 0.984 | 0.842 | 0.843 | 0.913 | 0.916 | 0.652 | 5.21 | 3.25 | 4.54 | 3.21 | 3.14 | 3.41 | 3.5 | 2.88 | > 10000 nM | > 10000 nM | > 10000 nM | > 10000 nM | > 10000 nM | > 10000 nM | > 10000 nM | > 10000 nM
2 | COc1cc2c(Oc3ccc(NC(=O)C4(C(=O)Nc5ccc(F)cc5)CC4)cc3F)ccnc2cc1OCCCN1CCOCC1 | 0.0119 | 0.00629 | 0.0481 | 0.00485 | 0.00697 | 0.0104 | 0.0122 | 0.00765 | 3.04 | 2.12 | 3.15 | 2.6 | 2.37 | 2.34 | 2.75 | 2.39 | 2910 nM | 575 nM | 3260 nM | 1140 nM | 1070 nM | 1200 nM | 2910 nM | 1320 nM
3 | Nc1nc(Nc2ccc(S(N)(=O)=O)cc2)nn1C(=O)c1c(F)cccc1F | 0.00913 | 0.0615 | 0.559 | 0.0118 | 0.573 | 0.203 | 0.0485 | 0.00276 | 3.19 | 3.13 | 3.39 | 2.85 | 2.77 | 2.99 | 3.08 | 1.8 | 2800 nM | 4580 nM | > 10000 nM | 2400 nM | > 10000 nM | 4890 nM | > 10000 nM | 465 nM
4 | O=C1NC(=O)/C(=C/c2ccc3nccc(-c4ccncc4)c3c2)S1 | 0.0334 | 0.125 | 0.341 | 0.219 | 0.467 | 0.26 | 0.43 | 0.216 | 2.45 | 2.21 | 2.97 | 2.48 | 2.63 | 2.4 | 2.87 | 2.19 | 498 nM | 412 nM | 4570 nM | 1090 nM | 2290 nM | 1160 nM | 6260 nM | 450 nM
5 | COc1ncc(-c2ccc3nccc(-c4ccnnc4)c3c2)cc1NS(=O)(=O)c1ccc(F)cc1F | 0.00994 | 0.0314 | 0.283 | 0.0976 | 0.0455 | 0.0986 | 0.0336 | 0.00239 | 1.49 | 1.08 | 2.32 | 1.46 | 1.23 | 1.49 | 1.4 | 1.11 | 92 nM | 28.9 nM | 242 nM | 63.1 nM | 36.5 nM | 76.6 nM | 84.2 nM | 29.6 nM
6 | CC(=O)Nc1cccc(-n2c(=O)n(C3CC3)c(=O)c3c(Nc4ccc(I)cc4F)n(C)c(=O)c(C)c32)c1 | 0.382 | 0.201 | 0.735 | 0.312 | 0.289 | 0.405 | 0.257 | 0.332 | 3.28 | 1.93 | 3.29 | 1.81 | 1.67 | 2.39 | 2.26 | 1.76 | 4610 nM | 228 nM | > 10000 nM | 215 nM | 118 nM | 1620 nM | 567 nM | 58.7 nM
7 | CCn1c(-c2nonc2N)nc2c(C#CC(C)(C)O)ncc(OC[C@H]3CCCNC3)c21 | 0.769 | 0.432 | 0.979 | 0.434 | 0.469 | 0.693 | 0.839 | 0.288 | 3.19 | 2.74 | 3.82 | 3.03 | 2.59 | 3.06 | 3.15 | 1.97 | > 10000 nM | 5920 nM | > 10000 nM | 9280 nM | 4510 nM | > 10000 nM | > 10000 nM | 396 nM
8 | Cc1ccccc1-n1c(Cn2cnc3c(N)ncnc32)nc2cccc(C)c2c1=O | 0.821 | 0.717 | 0.955 | 0.813 | 0.758 | 0.814 | 0.856 | 0.434 | 3.41 | 3.12 | 3.88 | 3.17 | 2.93 | 3.12 | 3.25 | 2.46 | > 10000 nM | > 10000 nM | > 10000 nM | > 10000 nM | > 10000 nM | > 10000 nM | > 10000 nM | 7980 nM
9 | CCc1cc(Nc2nccc(-c3c(-c4ccc(OC)c(C(=O)Nc5c(F)cccc5F)c4)nc4ccccn34)n2)c(OC)cc1N1CCC(N2CCN(S(C)(=O)=O)CC2)CC1 | 1 | 0.635 | 1.04 | 0.804 | 0.865 | 0.858 | 0.828 | 0.785 | 5.43 | 3.12 | 4.54 | 3.03 | 3.23 | 3.17 | 3.26 | 3.37 | > 10000 nM | > 10000 nM | > 10000 nM | > 10000 nM | > 10000 nM | > 10000 nM | > 10000 nM | > 10000 nM
10 | c1ccc2c(CCNc3ccc(Nc4ccncc4)cc3)c[nH]c2c1 | 0.00809 | 0.0912 | 0.022 | 0.00286 | 0.00837 | 0.0036 | 0.0434 | 0.00353 | 1.6 | 2.31 | 2.76 | 1.55 | 2.34 | 2.28 | 2.32 | 0.978 | 115 nM | 660 nM | 1360 nM | 136 nM | 1030 nM | 881 nM | 532 nM | > 10000 nM
11 | Cn1cc(C2=C(c3cn(C4CCN(Cc5ccccn5)CC4)c4ccccc34)C(=O)NC2=O)c2ccccc21 | 0.922 | 0.814 | 1.1 | 0.863 | 0.698 | 0.861 | 0.834 | 0.805 | 4.69 | 3.55 | 4.23 | 3.3 | 3.24 | 3.33 | 3.34 | 3.23 | > 10000 nM | > 10000 nM | > 10000 nM | > 10000 nM | > 10000 nM | > 10000 nM | > 10000 nM | > 10000 nM
12 | CCn1cc(-c2ccnc3[nH]c(-c4cccc(CN(C)C)c4)cc23)c(-c2ccc(NC(=O)N(C)C)cc2)n1 | 0.0615 | 0.0471 | 0.121 | 0.0251 | 0.0985 | 0.0272 | 0.165 | 0.0121 | 5.13 | 2.3 | 3.74 | 2.08 | 2.54 | 2.2 | 2.8 | 1.97 | 6090 nM | 490 nM | 3070 nM | 387 nM | 1530 nM | 686 nM | 1440 nM | 84.3 nM
13 | CCc1cnn2c(NCc3ccc[n+]([O-])c3)cc(N3CCCC[C@H]3CCO)nc12 | 0.0105 | 0.0724 | 0.00896 | 0.011 | 0.128 | 0.0122 | 0.0153 | 0.00554 | 0.612 | 0.874 | 0.65 | 0.783 | 1.15 | 0.716 | 1.04 | 0.398 | 11 nM | 14.7 nM | 13.6 nM | 17 nM | 21.8 nM | 14.7 nM | 29.8 nM | 6.29 nM
14 | C[C@@H](Oc1cc(-n2cnc3ccc(CN4CCN(C)CC4)cc32)sc1C(N)=O)c1ccccc1C(F)(F)F | 0.00269 | 0.17 | 0.599 | 0.172 | 0.235 | 0.234 | 0.0562 | 0.00395 | 1.4 | 1.77 | 2.98 | 1.75 | 2.36 | 1.92 | 1.49 | 0.807 | 44.9 nM | 153 nM | > 10000 nM | 89.1 nM | 1340 nM | 120 nM | 69.7 nM | 19.4 nM
15 | COc1ccc(-c2ccc3c(N4CCOCC4)nc(N4C[C@@H](C)O[C@@H](C)C4)nc3n2)cc1CO | 0.012 | 0.174 | 0.379 | 0.141 | 0.222 | 0.223 | 0.214 | 0.26 | 2.98 | 2.53 | 3.62 | 2.23 | 2.23 | 2.49 | 2.66 | 2.03 | 1630 nM | 1080 nM | 4900 nM | 592 nM | 724 nM | 1360 nM | 2120 nM | 772 nM
16 | CNC(=O)c1c(F)cccc1Nc1nc(Nc2cc3c(cc2OC)CCN3C(=O)CN(C)C)nc2[nH]ccc12 | 0.0181 | 0.00594 | 0.0165 | 0.00292 | 0.142 | 0.00561 | 0.016 | 0.00507 | 4.52 | 2.94 | 4.86 | 2.82 | 2.69 | 2.88 | 2.73 | 2.4 | 8350 nM | 3460 nM | 8550 nM | 3020 nM | 3140 nM | 4020 nM | 2400 nM | 1490 nM
17 | Cn1cc(-c2ccc3nnc(C(F)(F)c4ccc5ncccc5c4)n3n2)cn1 | 1.12 | 0.59 | 1.05 | 0.792 | 0.799 | 0.93 | 0.868 | 0.862 | 4.62 | 2.4 | 4.15 | 3.24 | 3.33 | 3.44 | 3.38 | 3.59 | > 10000 nM | > 10000 nM | > 10000 nM | > 10000 nM | > 10000 nM | > 10000 nM | > 10000 nM | > 10000 nM
